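Test compounds were applied to cells in 96-well plates for 48 hours at 5 doses. At the GI50, growth is halved.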 The source made the active and inactive calls. Cut-off read from the data, not from the text of the source: active = GI50 up to about 1.1 µM and inactive = higher.
Assays:
Assay in all cases: growth of human tumour cells (NCI), 48 h
786-0 = tested on: 786-0
OVCAR-8 = tested on: OVCAR-8
HOP-62 = tested on: HOP-62
SN12C = tested on: SN12C
SNB-19 = tested on: SNB-19
TK-10 = tested on: TK-10
NCI-H460 = tested on: NCI-H460
RXF 393 = tested on: RXF 393
SR = tested on: SR
NCI-H226 = tested on: NCI-H226
MOLT-4 = tested on: MOLT-4
CCRF-CEM = tested on: CCRF-CEM
COLO 205 = tested on: COLO 205
HCT-15 = tested on: HCT-15
EKVX = tested on: EKVX
IGROV-1 = tested on: IGROV-1
CAKI-1 = tested on: CAKI-1
OVCAR-5 = tested on: OVCAR-5
A498 = tested on: A498
HOP-92 = tested on: HOP-92

Row | Structure (SMILES) | GI50 (786-0) | GI50 (OVCAR-8) | GI50 (HOP-62) | GI50 (SN12C) | GI50 (SNB-19) | GI50 (TK-10) | GI50 (NCI-H460) | GI50 (RXF 393) | GI50 (SR) | GI50 (NCI-H226) | GI50 (MOLT-4) | GI50 (CCRF-CEM) | GI50 (COLO 205) | GI50 (HCT-15) | GI50 (EKVX) | GI50 (IGROV-1) | GI50 (CAKI-1) | GI50 (OVCAR-5) | GI50 (A498) | GI50 (HOP-92)
1 | CCCCCCCCCCCCCCCCNc1cccc2ccccc12 | > 100 µM (inactive) | > 100 µM (inactive) | > 100 µM (inactive) | > 100 µM (inactive) | > 100 µM (inactive) | > 100 µM (inactive) | > 100 µM (inactive) | > 100 µM (inactive) | > 100 µM (inactive) | > 100 µM (inactive) | > 100 µM (inactive) | > 100 µM (inactive) | > 100 µM (inactive) | > 100 µM | > 100 µM (inactive) | > 100 µM (inactive) | – | – | – | –
2 | CCOC(=O)C1=C(C(=O)c2ccc(C)cc2)C(c2cccc([N+](=O)[O-])c2)C(C(=O)c2ccc(C)cc2)=C(C(=O)OCC)N1 | 16.2 µM (inactive) | 22.5 µM (inactive) | 19.5 µM (inactive) | 17.6 µM (inactive) | 6.08 µM (inactive) | 17.2 µM (inactive) | 31.6 µM (inactive) | 21 µM (inactive) | 2.93 µM (inactive) | 19.1 µM (inactive) | 28.6 µM (inactive) | 5.69 µM (inactive) | 1.95 µM (inactive) | 0.853 µM | 24.1 µM (inactive) | 16.2 µM (inactive) | 19.5 µM (inactive) | 17.2 µM (inactive) | – | –
3 | CN1CN(c2ccccc2)C2(CCN(CCc3csc4ccccc34)CC2)C1=O | 14.5 µM (inactive) | 21.4 µM (inactive) | 12.2 µM (inactive) | 15.6 µM (inactive) | 20.2 µM (inactive) | 14 µM (inactive) | – | 12.6 µM (inactive) | 11.7 µM (inactive) | 17.4 µM (inactive) | 10.3 µM (inactive) | 12.3 µM (inactive) | 14.3 µM (inactive) | 10.7 µM | 12.8 µM (inactive) | 21.7 µM (inactive) | 11.2 µM (inactive) | 11.9 µM (inactive) | – | –
4 | N#C/C(=C1\SC(/N=N/c2ccccc2)C(=O)N1c1ccccc1)c1nc2ccccc2[nH]1 (stereo not given) | 7.35 µM (inactive) | > 100 µM (inactive) | 23.4 µM (inactive) | > 100 µM (inactive) | > 100 µM (inactive) | 48.9 µM (inactive) | 36.1 µM (inactive) | 28.6 µM (inactive) | – | 71.1 µM (inactive) | 26.1 µM (inactive) | 42.8 µM (inactive) | > 100 µM (inactive) | > 100 µM | > 100 µM (inactive) | 20.5 µM (inactive) | > 100 µM (inactive) | > 100 µM (inactive) | > 100 µM (inactive) | 23.5 µM (inactive)
5 | Cc1csc2nc3c(cnn3C)c(=S)n12 | > 100 µM (inactive) | > 100 µM (inactive) | 50 µM (inactive) | 24.2 µM (inactive) | > 100 µM (inactive) | 80.5 µM (inactive) | > 100 µM (inactive) | 35.1 µM (inactive) | > 100 µM (inactive) | – | > 100 µM (inactive) | 87.7 µM (inactive) | > 10 µM (inactive) | 71.4 µM | 14.9 µM (inactive) | > 100 µM (inactive) | 34.3 µM (inactive) | > 100 µM (inactive) | – | –
6 | O=C(/C=N/O)Nc1ccc(Cl)c(I)c1 | 29.3 µM (inactive) | 28.9 µM (inactive) | 23.1 µM (inactive) | 22.5 µM (inactive) | 23.9 µM (inactive) | 33.6 µM (inactive) | 21.6 µM (inactive) | 16.8 µM (inactive) | 15.7 µM (inactive) | 0.0445 µM (active) | 19.6 µM (inactive) | 26.7 µM (inactive) | 13.6 µM (inactive) | 14.4 µM | 10.8 µM (inactive) | 8.61 µM (inactive) | 14.3 µM (inactive) | 21.6 µM (inactive) | – | –

Source: ChEMBL document CHEMBL1201862, “PubChem BioAssay data set” (2004)
